Structures can show the parent of a compound that is named as a salt.

From patent US20250206724A1, “SUBSTITUTED 3-AMINO INDAZOLE DERIVATIVES AS KINASE INHIBITORS” (NERVIANO MEDICAL SCIENCES S.R.L., priority 2022, published 2025) come the findings set out here.
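Also: compound preincubated 30 min with CDK11A-p58, then probe added and polarization (mP) read 15 min later, 0% displacement is probe plus enzyme, 100% is probe alone.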

The target of this test is T1, CDK11A (Homo sapiens, UniProt Q9UQ88).
T1 sequence (Q9UQ88 346-783): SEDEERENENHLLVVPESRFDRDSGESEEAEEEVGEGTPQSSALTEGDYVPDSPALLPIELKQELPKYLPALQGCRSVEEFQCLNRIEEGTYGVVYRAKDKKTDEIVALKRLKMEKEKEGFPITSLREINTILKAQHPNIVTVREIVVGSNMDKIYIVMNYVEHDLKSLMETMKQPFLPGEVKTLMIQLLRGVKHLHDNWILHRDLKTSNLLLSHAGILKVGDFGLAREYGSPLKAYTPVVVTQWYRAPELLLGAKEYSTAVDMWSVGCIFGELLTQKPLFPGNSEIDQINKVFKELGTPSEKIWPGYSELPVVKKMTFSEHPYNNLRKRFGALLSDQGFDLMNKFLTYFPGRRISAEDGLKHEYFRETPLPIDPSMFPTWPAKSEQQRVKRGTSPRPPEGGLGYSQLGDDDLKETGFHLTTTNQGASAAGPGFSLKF
The following applies: displacement of SNS-032-Atto590 probe (0.002 μM) from CDK11A-p58 (0.032 uM), fluorescence polarization.
Procedure: Biochemical Kinase Inhibition Assay on CDK11 in Displacement Assay Format
Displacement Assay Format
Fluorescence Polarization (FP) experiments were carried out at room temperature using no-binding black 384-well microplates (Corning, NY), in 50 mM Tris HCl, pH 8, 10 mM MgCl2, 1 mM DTT, 1 mM CHAPS in a final volume of 60 μl. The plate reader was the Pherastar microplate reader (BMG). Polarization values were read using excitation and emission wavelengths of 590 and 675 nm, respectively. All FP values are expressed as mP units.
Compounds were 4-folds serially diluted in 100% DMSO and added directly to the CDK11A-p58 solution using the pin tool (V & P Scientific): 0.2 ul of the different compound concentrations in 20 ul of enzyme solution. After an incubation of 30 minutes at r.t., 40 ul of probe solution were added. […] The Pherastar reading is performed after 15 minutes of all components incubation. For each assay, high controls (equivalent to 0% displacement) contain probe, CDK11A-p58, and 0.33% DMSO, whereas low controls (equivalent to 100% displacement) contain only probe and 0.33% DMSO. Controls are used for the Z′ and signal to background evaluation.
The data per each molecule are analyzed by Prism SW or an internally customized version of the SW package “Assay Explorer” which provides sigmoidal fittings of the ten-dilution curves for DC50 determination using a 4 parameters logistic equation:
where x is the logarithm of the inhibitor concentration, y is the response; y starts at bottom and goes to top with a sigmoid shape.
The compound `CC(C)OC(=O)n1nc(NC(=O)[C@@H]2CCC(C)(C)NC2)c2cc(-c3cc(C#N)ccc3Cl)ccc21` (single isomer, unassigned) [cpd 226, hydrochloride] yielded a DC50 of 1010 nM. The figure for `COC(=O)c1ccc(C#N)c(-c2ccc3[nH]nc(NC(=O)[C@@H]4CCCNC4)c3c2)c1` [cpd 40, Methyl 4-cyano-3-(3-{[(3R)-piperidin-3-ylcarbonyl]amino}-1H-indazol-5-yl)benzoate hydrochloride] is 45 nM; for `N#Cc1ccc(Cl)c(-c2ccc3[nH]nc(NC(=O)C4CC(NC5CC5)C4)c3c2)c1` (stereo not shown) [compound 155, N-[5-(2-Chloro-5-cyanophenyl)-1H-indazol-3-yl]-3-(cyclopropylamino)cyclobutanecarboxamide hydrochloride] it is 53 nM. Then `O=C(Nc1n[nH]c2ccc(-c3cc(Cl)ccc3Cl)cc12)C1CCCNC1` (stereo not shown) [cpd 4, N-[5-(2,5-Dichlorophenyl)-1H-indazol-3-yl]piperidine-3-carboxamide hydrochloride], with 50 nM. The figure for `O=C(Nc1n[nH]c2ccc(-c3cc(-c4ncon4)ccc3Cl)cc12)[C@@H]1CCCNC1` [cpd 58, (3R)-N-{5-[2-Chloro-5-(1,2,4-oxadiazol-3-yl)phenyl]-1H-indazol-3-yl}piperidine-3-carboxamide dihydrochloride] is 20 nM; for `CN1CCC(C(=O)Nc2n[nH]c3ccc(-c4cccc(C#N)c4)cc23)CC1` [cpd 89, N-[5-(3-Cyanophenyl)-1H-indazol-3-yl]-1-methylpiperidine-4-carboxamide hydrochloride] it is 784 nM. The compound `O=C(Nc1n[nH]c2ccc(-c3cc(F)ccc3Cl)cc12)[C@@H]1CCCNC1` [cpd 52, (3R)-N-[5-(2-Chloro-5-fluorophenyl)-1H-indazol-3-yl]piperidine-3-carboxamide hydrochloride] gave a DC50 of 42 nM.

The compound `CN1CCC(C(=O)Nc2n[nH]c3ccc(-c4ccccc4C#N)cc23)CC1` [cpd 79, N-[5-(2-Cyanophenyl)-1H-indazol-3-yl]-1-methylpiperidine-4-carboxamide p-toluensulfonate] gave a DC50 of 277 nM. Then `CC(=O)c1ccc(F)c(-c2ccc3[nH]nc(NC(=O)[C@@H]4CCCNC4)c3c2)c1` [cpd 19, (3R)-N-[5-(5-Acetyl-2-fluorophenyl)-1H-indazol-3-yl]piperidine-3-carboxamide hydrochloride], with 27 nM; and `CNC1CCC(C(=O)Nc2n[nH]c3ccc(-c4c(Cl)cccc4Cl)cc23)CC1` (stereo not shown) [compound 144, N-[5-(2,6-Dichlorophenyl)-1H-indazol-3-yl]-4-(methylamino)cyclohexanecarboxamide hydrochloride], with 110 nM; and `CCOc1ccc2[nH]nc(NC(=O)[C@@H]3CCCNC3)c2c1` [cpd 229, (3R)-N-(5-Ethoxy-1H-indazol-3-yl)piperidine-3-carboxamide hydrochloride], with 20 nM.

With `O=C(Nc1n[nH]c2ccc(-c3ccccc3Cl)cc12)[C@@H]1CCCNC1` [cpd 47, (3R)-N-[5-(2-Chlorophenyl)-1H-indazol-3-yl]piperidine-3-carboxamide hydrochloride], the DC50 turned out to be 38 nM.

For `N#Cc1ccc(Cl)c(-c2ccc3[nH]nc(NC(=O)C4CC(NC5CCCC5)C4)c3c2)c1` (stereo not shown) [compound 154, N-[5-(2-Chloro-5-cyanophenyl)-1H-indazol-3-yl]-3-(cyclopentylamino)cyclobutanecarboxamide hydrochloride], the DC50 came to 40 nM.

Compound `CC(OC(=O)C(C)C)OC(=O)N1CCC[C@@H](C(=O)Nc2n[nH]c3ccc(-c4cc(C#N)ccc4Cl)cc23)C1` (stereo partly drawn) [compound 190, 1-[(2-Methylpropanoyl)oxy]ethyl (3R)-3-{[5-(2-chloro-5-cyanophenyl)-1H-indazol-3-yl]carbamoyl}piperidine-1-carboxylate] yielded a DC50 of 706 nM. Then `COC(=O)c1ccc(Cl)c(-c2ccc3[nH]nc(NC(=O)[C@@H]4CCCNC4)c3c2)c1Cl` [cpd 57, Methyl 2,4-dichloro-3-(3-{[(3R)-piperidin-3-ylcarbonyl]amino}-1H-indazol-5-yl)benzoate hydrochloride], with 45 nM; and `O=C(Nc1n[nH]c2ccc(-c3cc(-c4nnco4)ccc3Cl)cc12)[C@@H]1CCCNC1` [cpd 59, (3R)-N-{5-[2-Chloro-5-(1,3,4-oxadiazol-2-yl)phenyl]-1H-indazol-3-yl}piperidine-3-carboxamide trifluoroacetate], with 57 nM; and `CN1CCC(C(=O)Nc2n[nH]c3ccc(-c4ccccc4Cl)cc23)CC1` [cpd 85, N-[5-(2-Chlorophenyl)-1H-indazol-3-yl]-1-methylpiperidine-4-carboxamide hydrochloride], with 393 nM. With `CN(C)C1CCC(C(=O)Nc2n[nH]c3ccc(-c4c(Cl)cccc4Cl)cc23)CC1` (stereo not shown) [compound 166, N-[5-(2,6-Dichlorophenyl)-1H-indazol-3-yl]-4-(dimethylamino)cyclohexanecarboxamide hydrochloride], the DC50 came out at 133 nM. The figure for `CN(C)C1CC(C(=O)Nc2n[nH]c3ccc(-c4ccc(O)cc4Cl)cc23)C1` (stereo not shown) [cpd 62, N-[5-(2-Chloro-4-hydroxyphenyl)-1H-indazol-3-yl]-3-(dimethylamino)cyclobutanecarboxamide hydrochloride] is 148 nM; for `NCCC(=O)Nc1n[nH]c2ccc(-c3c(Cl)cccc3Cl)cc12` [compound 175, N-[5-(2,6-Dichlorophenyl)-1H-indazol-3-yl]-b-alaninamide hydrochloride] it is 339 nM. The figure for `COc1c(F)cc(F)c(-c2ccc3[nH]nc(NC(=O)C4CCN(C)CC4)c3c2)c1F` [compound 131, 1-Methyl-N-[5-(2,4,6-trifluoro-3-methoxyphenyl)-1H-indazol-3-yl]piperidine-4-carboxamide hydrochloride] is 438 nM; for `N#Cc1ccc(Cl)c(-c2ccc3[nH]nc(NC(=O)C4CCCCNC4)c3c2)c1` (stereo not shown) [compound 183, N-[5-(2-Chloro-5-cyanophenyl)-1H-indazol-3-yl]azepane-3-carboxamide hydrochloride] it is 73 nM.

`O=C(Nc1n[nH]c2ccc(-c3c(F)cccc3Cl)cc12)[C@@H]1CCCNC1` [compound 172, (3R)-N-[5-(2-Chloro-6-fluorophenyl)-1H-indazol-3-yl]piperidine-3-carboxamide hydrochloride] had a DC50 of 42 nM. The figure for `NC[C@H]1CC[C@H](C(=O)Nc2n[nH]c3ccc(-c4c(Cl)cccc4Cl)cc23)CC1` [compound 164, trans-4-(Aminomethyl)-N-[5-(2,6-dichlorophenyl)-1H-indazol-3-yl]cyclohexanecarboxamide hydrochloride] is 151 nM; for `CN1CCC(C(=O)Nc2n[nH]c3ccc(-c4ccc(O)cc4Cl)cc23)CC1` [cpd 111, N-[5-(2-Chloro-4-hydroxyphenyl)-1H-indazol-3-yl]-1-methylpiperidine-4-carboxamide hydrochloride] it is 141 nM.

Turning to `O=C(Nc1n[nH]c2ccc(-c3ccc(O)cc3Cl)cc12)C1CCCNC1` (stereo not shown) [cpd 3, N-[5-(2-Chloro-4-hydroxyphenyl)-1H-indazol-3-yl]piperidine-3-carboxamide hydrochloride], the DC50 was 51 nM. Then `CC(=O)c1ccc(F)c(-c2ccc3[nH]nc(NC(=O)C4CCCNC4)c3c2)c1` (stereo not shown) [cpd 16, N-[5-(5-Acetyl-2-fluorophenyl)-1H-indazol-3-yl]piperidine-3-carboxamide hydrochloride], with 72 nM; and `O=C(Nc1n[nH]c2ccc(-c3ccccc3)cc12)[C@@H]1CCCNC1` [cpd 49, (3R)-N-(5-Phenyl-1H-indazol-3-yl)piperidine-3-carboxamide hydrochloride], with 78 nM.

`CCCCCN1CCC(C(=O)Nc2n[nH]c3ccc(-c4cc(C#N)ccc4Cl)cc23)CC1` [compound 142, N-[5-(2-Chloro-5-cyanophenyl)-1H-indazol-3-yl]-1-pentylpiperidine-4-carboxamide hydrochloride] had a DC50 of 95 nM. Then `Nc1ccc(-c2ccc3[nH]nc(NC(=O)C4CCCNC4)c3c2)c(Cl)c1` (stereo not shown) [cpd 1, N-[5-(4-Amino-2-chlorophenyl)-1H-indazol-3-yl]piperidine-3-carboxamide dihydrochloride], with 49 nM; and `CC(C)NC1CC(C(=O)Nc2n[nH]c3ccc(-c4cc(C#N)ccc4Cl)cc23)C1` (stereo not shown) [compound 148, N-[5-(2-Chloro-5-cyanophenyl)-1H-indazol-3-yl]-3-(propan-2-ylamino)cyclobutanecarboxamide hydrochloride], with 20 nM. Then `CN1CCC(C(=O)Nc2n[nH]c3ccc(-c4ccc(O)c(C#N)c4)cc23)CC1` [compound 135, N-[5-(3-Cyano-4-hydroxyphenyl)-1H-indazol-3-yl]-1-methylpiperidine-4-carboxamide hydrochloride], with 786 nM. The figure for `CN1CCC(C(=O)Nc2n[nH]c3ccc(-c4cc(Cl)ccc4Cl)cc23)CC1` [cpd 80, N-[5-(2,5-Dichlorophenyl)-1H-indazol-3-yl]-1-methylpiperidine-4-carboxamide hydrochloride] is 216 nM. As for `CN1CCC(C(=O)Nc2n[nH]c3ccc(-c4ccc(F)cc4)cc23)CC1` [cpd 87, N-[5-(4-Fluorophenyl)-1H-indazol-3-yl]-1-methylpiperidine-4-carboxamide hydrochloride], the DC50 is 988 nM.
